Measurements from ChEMBL document CHEMBL1151433, “National and regional assessment of antimicrobial resistance among community-acquired respiratory tract pathogens identified in a 2005-2006 U.S. Faropenem surveillance study” (2007).
Converted amounts (≈) assume the structure as drawn.

Key:
Haemophilus influenzae [1] = experiment: Antibacterial activity against Haemophilus influenzae […] isolated from respiratory tract infected patients after 20 to 24 hrs by broth microdilution method; assay type: functional; settings: ATCC 49247
Haemophilus influenzae [2] = experiment: Antibacterial activity against beta lactamase-negative Haemophilus influenzae […] isolated from respiratory tract infected patients assessed as susceptible isolates after 20 to 24 hrs by broth microdilution method; assay type: functional
Streptococcus pneumoniae [3] = experiment: Antibacterial activity against penicillin-susceptible Streptococcus pneumoniae ATCC 49619 isolated from respiratory tract infected patients assessed as resistant isolates after 20 to 24 hrs by broth microdilution method; assay type: functional
Haemophilus influenzae [4] = experiment: Antibacterial activity against beta lactamase-negative Haemophilus influenzae […] isolated from respiratory tract infected patients after 20 to 24 hrs by broth microdilution method; assay type: functional; settings: ATCC 49247
Haemophilus influenzae [5] = experiment: Antibacterial activity against beta lactamase-positive Haemophilus influenzae […] isolated from respiratory tract infected patients assessed as susceptible isolates after 20 to 24 hrs by broth microdilution method; assay type: functional, ATCC 49247
Streptococcus pneumoniae [6] = experiment: Antibacterial activity against penicillin-intermediate Streptococcus pneumoniae ATCC 49619 isolated from respiratory tract infected patients after 20 to 24 hrs by broth microdilution method; assay type: functional
Streptococcus pneumoniae [7] = experiment: Antibacterial activity against Streptococcus pneumoniae ATCC 49619 isolated from respiratory tract infected patients assessed as resistant isolates after 20 to 24 hrs by broth microdilution method; assay type: functional
Streptococcus pneumoniae [8] = experiment: Antibacterial activity against penicillin-susceptible Streptococcus pneumoniae ATCC 49619 isolated from respiratory tract infected patients assessed as susceptible isolates after 20 to 24 hrs by broth microdilution method; assay type: functional
Haemophilus influenzae [9] = experiment: Antibacterial activity against Haemophilus influenzae […] isolated from respiratory tract infected patients assessed as susceptible isolates after 20 to 24 hrs by broth microdilution method; assay type: functional, ATCC 49247
Streptococcus pneumoniae [10] = experiment: Antibacterial activity against penicillin-resistant Streptococcus pneumoniae ATCC 49619 isolated from respiratory tract infected patients assessed as resistant isolates after 20 to 24 hrs by broth microdilution method; assay type: functional
Streptococcus pneumoniae [11] = experiment: Antibacterial activity against penicillin-intermediate Streptococcus pneumoniae ATCC 49619 isolated from respiratory tract infected patients assessed as resistant isolates after 20 to 24 hrs by broth microdilution method; assay type: functional
Haemophilus influenzae [12] = experiment: Antibacterial activity against beta lactamase-positive Haemophilus influenzae […] isolated from respiratory tract infected patients after 20 to 24 hrs by broth microdilution method; assay type: functional; settings: ATCC 49247
Streptococcus pneumoniae [13] = experiment: Antibacterial activity against penicillin-resistant Streptococcus pneumoniae ATCC 49619 isolated from respiratory tract infected patients after 20 to 24 hrs by broth microdilution method; assay type: functional
Streptococcus pneumoniae [14] = experiment: Antibacterial activity against Streptococcus pneumoniae ATCC 49619 isolated from respiratory tract infected patients after 20 to 24 hrs by broth microdilution method; assay type: functional
Moraxella catarrhalis = experiment: Antibacterial activity against Moraxella catarrhalis isolated from respiratory tract infected patients after 20 to 24 hrs by broth microdilution method; assay type: functional
Streptococcus pneumoniae [15] = experiment: Antibacterial activity against penicillin-susceptible Streptococcus pneumoniae ATCC 49619 isolated from respiratory tract infected patients after 20 to 24 hrs by broth microdilution method; assay type: functional
Streptococcus pneumoniae [16] = experiment: Antibacterial activity against Streptococcus pneumoniae ATCC 49619 isolated from respiratory tract infected patients assessed as susceptible isolates after 20 to 24 hrs by broth microdilution method; assay type: functional
Streptococcus pneumoniae [17] = experiment: Antibacterial activity against penicillin-resistant Streptococcus pneumoniae ATCC 49619 isolated from respiratory tract infected patients assessed as susceptible isolates after 20 to 24 hrs by broth microdilution method; assay type: functional
Streptococcus pneumoniae [18] = experiment: Antibacterial activity against penicillin-intermediate Streptococcus pneumoniae ATCC 49619 isolated from respiratory tract infected patients assessed as susceptible isolates after 20 to 24 hrs by broth microdilution method; assay type: functional
Streptococcus pneumoniae [19] = experiment: Antibacterial activity against Streptococcus pneumoniae ATCC 49619 isolated from respiratory tract infected male patients after 20 to 24 hrs by broth microdilution method; assay type: functional
Streptococcus pneumoniae [20] = experiment: Antibacterial activity against Streptococcus pneumoniae ATCC 49619 isolated from respiratory tract infected patients more than 65 years of age assessed as resistant isolates after 20 to 24 hrs by broth microdilution method; assay type: functional
Streptococcus pneumoniae [21] = experiment: Antibacterial activity against Streptococcus pneumoniae ATCC 49619 isolated from respiratory tract infected outpatients after 20 to 24 hrs by broth microdilution method; assay type: functional
Streptococcus pneumoniae [22] = experiment: Antibacterial activity against Streptococcus pneumoniae ATCC 49619 isolated from respiratory tract infected male patients assessed as resistant isolates after 20 to 24 hrs by broth microdilution method; assay type: functional
Streptococcus pneumoniae [23] = experiment: Antibacterial activity against Streptococcus pneumoniae ATCC 49619 isolated from respiratory tract infected patients with 15 to 64 years of age after 20 to 24 hrs by broth microdilution method; assay type: functional
Streptococcus pneumoniae [24] = experiment: Antibacterial activity against Streptococcus pneumoniae ATCC 49619 isolated from respiratory tract infected patients with 6 to 14 years of age assessed as resistant isolates after 20 to 24 hrs by broth microdilution method; assay type: functional
Streptococcus pneumoniae [25] = experiment: Antibacterial activity against Streptococcus pneumoniae ATCC 49619 isolated from respiratory tract infected female patients assessed as resistant isolates after 20 to 24 hrs by broth microdilution method; assay type: functional
Streptococcus pneumoniae [26] = experiment: Antibacterial activity against Streptococcus pneumoniae ATCC 49619 isolated from respiratory tract infected female patients after 20 to 24 hrs by broth microdilution method; assay type: functional
Streptococcus pneumoniae [27] = experiment: Antibacterial activity against Streptococcus pneumoniae ATCC 49619 isolated from respiratory tract infected inpatients after 20 to 24 hrs by broth microdilution method; assay type: functional
Streptococcus pneumoniae [28] = experiment: Antibacterial activity against Streptococcus pneumoniae ATCC 49619 isolated from respiratory tract infected patients with 6 to 14 years of age after 20 to 24 hrs by broth microdilution method; assay type: functional
Streptococcus pneumoniae [29] = experiment: Antibacterial activity against Streptococcus pneumoniae ATCC 49619 isolated from respiratory tract infected patients more than 65 years of age after 20 to 24 hrs by broth microdilution method; assay type: functional
Streptococcus pneumoniae [30] = experiment: Antibacterial activity against Streptococcus pneumoniae ATCC 49619 isolated from respiratory tract infected outpatients assessed as resistant isolates after 20 to 24 hrs by broth microdilution method; assay type: functional
Streptococcus pneumoniae [31] = experiment: Antibacterial activity against Streptococcus pneumoniae ATCC 49619 isolated from respiratory tract infected inpatients assessed as resistant isolates after 20 to 24 hrs by broth microdilution method; assay type: functional
Streptococcus pneumoniae [32] = experiment: Antibacterial activity against Streptococcus pneumoniae ATCC 49619 isolated from respiratory tract infected patients with 3 to 5 years of age after 20 to 24 hrs by broth microdilution method; assay type: functional
Streptococcus pneumoniae [33] = experiment: Antibacterial activity against Streptococcus pneumoniae ATCC 49619 isolated from respiratory tract infected patients with 3 to 5 years of age assessed as resistant isolates after 20 to 24 hrs by broth microdilution method; assay type: functional
Streptococcus pneumoniae [34] = experiment: Antibacterial activity against Streptococcus pneumoniae ATCC 49619 isolated from respiratory tract infected patients within 2 years of age after 20 to 24 hrs by broth microdilution method; assay type: functional
Streptococcus pneumoniae [35] = experiment: Antibacterial activity against Streptococcus pneumoniae ATCC 49619 isolated from respiratory tract infected patients within 2 years of age assessed as resistant isolates after 20 to 24 hrs by broth microdilution method; assay type: functional
Streptococcus pneumoniae [36] = experiment: Antibacterial activity against Streptococcus pneumoniae ATCC 49619 isolated from respiratory tract infected patients with 15 to 64 years of age assessed as resistant isolates after 20 to 24 hrs by broth microdilution method; assay type: functional

## C[C@@H](O)[C@H]1C(=O)N2C(C(=O)O)=C(S[C@@H]3CN[C@H](C(=O)N(C)C)C3)[C@H](C)[C@H]12 [MEROPENEM]
Haemophilus influenzae [1]
  MIC50: 0.03 µg/mL (≈ 0.0782 µM)
  MIC90: 0.12 µg/mL (≈ 0.313 µM)
Haemophilus influenzae [2]
  Activity: 99.6%
Streptococcus pneumoniae [3]
  Activity: 0%
Haemophilus influenzae [4]
  MIC50: 0.06 µg/mL (≈ 0.156 µM)
  MIC90: 0.12 µg/mL (≈ 0.313 µM)
Haemophilus influenzae [5]
  Activity: 100%
Streptococcus pneumoniae [6]
  MIC50: 0.06 µg/mL (≈ 0.156 µM)
  MIC90: 0.25 µg/mL (≈ 0.652 µM)
Streptococcus pneumoniae [7]
  Activity: 9.5%
Streptococcus pneumoniae [8]
  Activity: 100%
Haemophilus influenzae [9]
  Activity: 99.7%
Streptococcus pneumoniae [10]
  Activity: 59.5%
Streptococcus pneumoniae [11]
  Activity: 0%
Haemophilus influenzae [12]
  MIC50: 0.03 µg/mL (≈ 0.0782 µM)
  MIC90: 0.06 µg/mL (≈ 0.156 µM)
Streptococcus pneumoniae [13]
  MIC50: 1 µg/mL (≈ 2.61 µM)
  MIC90: 1 µg/mL (≈ 2.61 µM)
Streptococcus pneumoniae [14]
  MIC50: 0.015 µg/mL (≈ 0.0391 µM)
  MIC90: 0.5 µg/mL (≈ 1.3 µM)
Moraxella catarrhalis
  MIC50: ≤ 0.004 µg/mL
  MIC90: 0.008 µg/mL (≈ 0.0209 µM)
Streptococcus pneumoniae [15]
  MIC50: 0.015 µg/mL (≈ 0.0391 µM)
  MIC90: 0.015 µg/mL (≈ 0.0391 µM)
Streptococcus pneumoniae [16]
  Activity: 83.2%
Streptococcus pneumoniae [17]
  Activity: 4.5%
Streptococcus pneumoniae [18]
  Activity: 93.2%

## CC[C@H]1OC(=O)[C@H](C)[C@@H](O[C@H]2C[C@@](C)(OC)[C@@H](O)[C@H](C)O2)[C@H](C)[C@@H](O[C@@H]2O[C@H](C)C[C@H](N(C)C)[C@H]2O)[C@](C)(O)C[C@@H](C)CN(C)[C@H](C)[C@@H](O)[C@]1(C)O [AZITHROMYCIN]
Haemophilus influenzae [1]
  MIC50: 1 µg/mL (≈ 1.34 µM)
  MIC90: 2 µg/mL (≈ 2.67 µM)
Haemophilus influenzae [2]
  Activity: 98.9%
Streptococcus pneumoniae [3]
  Activity: 11.3%
Streptococcus pneumoniae [19]
  MIC90: > 16 µg/mL
Streptococcus pneumoniae [20]
  Activity: 33.8%
Haemophilus influenzae [4]
  MIC50: 1 µg/mL (≈ 1.34 µM)
  MIC90: 2 µg/mL (≈ 2.67 µM)
Streptococcus pneumoniae [21]
  MIC90: > 16 µg/mL
Streptococcus pneumoniae [22]
  Activity: 36%
Streptococcus pneumoniae [23]
  MIC90: > 16 µg/mL
Haemophilus influenzae [5]
  Activity: 98.1%
Streptococcus pneumoniae [24]
  Activity: 36%
Streptococcus pneumoniae [25]
  Activity: 31.2%
Streptococcus pneumoniae [26]
  MIC90: > 16 µg/mL
Streptococcus pneumoniae [27]
  MIC90: > 16 µg/mL
Streptococcus pneumoniae [6]
  MIC50: 4 µg/mL (≈ 5.34 µM)
  MIC90: > 16 µg/mL
Streptococcus pneumoniae [7]
  Activity: 34%
Streptococcus pneumoniae [8]
  Activity: 87.9%
Streptococcus pneumoniae [28]
  MIC90: > 16 µg/mL
Haemophilus influenzae [9]
  Activity: 98.7%
Streptococcus pneumoniae [10]
  Activity: 80.6%
Streptococcus pneumoniae [11]
  Activity: 64.5%
Streptococcus pneumoniae [29]
  MIC90: > 16 µg/mL
Streptococcus pneumoniae [30]
  Activity: 34.8%
Streptococcus pneumoniae [31]
  Activity: 33%
Haemophilus influenzae [12]
  MIC50: 1 µg/mL (≈ 1.34 µM)
  MIC90: 2 µg/mL (≈ 2.67 µM)
Streptococcus pneumoniae [32]
  MIC90: > 16 µg/mL
Streptococcus pneumoniae [33]
  Activity: 42.4%
Streptococcus pneumoniae [34]
  MIC90: > 16 µg/mL
Streptococcus pneumoniae [13]
  MIC50: 32 µg/mL (≈ 42.7 µM)
  MIC90: > 16 µg/mL
Streptococcus pneumoniae [35]
  Activity: 50.5%
Streptococcus pneumoniae [14]
  MIC50: ≤ 0.12 µg/mL
  MIC90: > 16 µg/mL
Moraxella catarrhalis
  MIC50: ≤ 0.12 µg/mL
  MIC90: ≤ 0.12 µg/mL
Streptococcus pneumoniae [15]
  MIC50: ≤ 0.12 µg/mL
  MIC90: 4 µg/mL (≈ 5.34 µM)
Streptococcus pneumoniae [16]
  Activity: 65.5%
Streptococcus pneumoniae [36]
  Activity: 27.6%
Streptococcus pneumoniae [17]
  Activity: 19.4%
Streptococcus pneumoniae [18]
  Activity: 35.5%
